This passage reports chromatographic logP and melting point results from patent US20040054194A1, “Method for producing 1-pyrrolines” (priority 2003, published 2004).

Like-named read-outs stand apart in the source and are kept apart here.

Data set [1] can be described thus: logP determination by HPLC on a reversed-phase column (C 18), EEC Directive 79/831 Annex V.A8. In kind it is physicochemical. The note with it: reversed-phase HPLC column (C 18), pH 2.3, HPLC. As for the experimental part:
The logp values given in the tables and Preparation Examples above are determined in accordance with EEC Directive 79/831 Annex V .A8 by HPLC (High Performance Liquid Chromatography) on a reversed-phase column (C 18). Temperature: 43° C.
The determination is carried out in the acidic range at pH 2.3 using the mobile phases 0.1% aqueous phosphoric acid and acetonitrile; linear gradient from 10% acetonitrile to 90% acetonitrile.
Calibration is carried out using unbranched alkan-2-ones (of 3 to 16 carbon atoms) with known logp values (determination of the logp values by the retention times using linear interpolation between two successive alkanones).

Setting [2] is: pH 2.3, read-out: log P (pH 2.3).
Setting [3] is: acidic range pH 2.3, amides of the formula (II), read-out: logP*.
Setting [4] is: acidic range pH 2.3, pyrrolines of the formula (I), read-out: logP*.

As a reminder, the melting point is the temperature, or range, at which the solid turns liquid. As for `O=C(/C=C/c1ccc(Br)cc1)c1c(F)cccc1F` [VI-1, (2E)-3-(4-bromophenyl)-1-(2,6-difluorophenyl)-2-propen-1-one], the melting point came to 71 °C. The chromatographic logP in data set [1] (acidic range pH 2.3, chalcones of the formula (VI), read-out: logP*) came out at 3.98. Moreover, the chromatographic logP in data set [1] (setting [2]) was found to be 3.98.
Turning to `CC(=O)NC(CCC(=O)c1c(F)cccc1F)c1ccc(Br)cc1` (centres unmarked) [II-1, N-[1-(4-bromophenyl)-4-(2,6-difluorophenyl)-4-oxobutyl]acetamide], the melting point lay in the range of 162 to 163 °C. Further, the chromatographic logP in data set [1] (setting [3]) was 2.67. Also, the chromatographic logP in data set [1] (setting [2]) is 2.67.
Take `CC(=O)NC(CCC(=O)c1c(F)cccc1F)c1ccc(Cl)cc1` (centres unmarked) [II-2, N-[1-(4-chlorophenyl)-4-(2,6-difluorophenyl)-4-oxobutyl]acetamide]: the chromatographic logP in data set [1] (setting [3]) and in data set [1] (setting [2]) was 2.59 each time.
`O=C(c1c(F)cccc1F)C1CC1c1ccc(Br)cc1` (centres unmarked) [III-1, [2-(4-bromophenyl)cyclopropyl](2,6-difluoro-phenyl)methanone] yielded a melting point of 64 to 65 °C. The chromatographic logP in data set [1] (acidic range pH 2.3, cyclopropanes of the formula (III), read-out: logP*) was 4.22. The chromatographic logP in data set [1] (setting [2]) was found to be 4.24.
As for `Fc1cccc(F)c1C1=NC(c2ccc(Br)cc2)CC1` (centres unmarked) [Example I-1, 2-(4-bromophenyl)-5-(2,6-difluorophenyl)-3,4-dihydro-2H-pyrrole], the melting point is 48 °C. Moreover, the chromatographic logP in data set [1] (setting [4]) was 2.77. For the same compound, the chromatographic logP in data set [1] (setting [2]) was 2.74.
`CC(=O)NC(CCC(=O)c1c(F)cccc1F)c1ccc(-c2ccc(OC(F)(F)F)cc2)cc1` (centres unmarked) [II-3]: the chromatographic logP in data set [1] (setting [3]) was determined as 3.79.
Take `Fc1cccc(F)c1C1=NC(c2ccc(Cl)cc2)CC1` (centres unmarked) [Example I-2, 2-(4-chlorophenyl)-5-(2,6-difluorophenyl)-3,4-dihydro-2H-pyrrole]: the chromatographic logP in data set [1] (setting [4]) and in data set [1] (setting [2]) was 2.59 each time.
